Key:
clinical [1] = conditions: human, in vivo, iv, Vdss
clinical [2] = conditions: human, in vivo, iv, t1/2
clinical [3] = conditions: human, in vivo, iv, CL
clinical [4] = conditions: human, in vivo, iv
clinical [5] = conditions: human, in vivo, iv; remark: listed apart in the source

| SMILES | Vd (clinical [1]) [L/kg] | half-life (clinical [2]) [h] | clearance (clinical [3]) [mL/min/kg] | fraction unbound (clinical [4]) | MRT (clinical [5]) [h] |
| --- | --- | --- | --- | --- | --- |
| CC1(C)C[C@@H]1C(=O)N/C(=C\CCCCSC[C@H](N)C(=O)O)C(=O)O [CILASTATIN] | 0.15 | 0.86 | 2.3 | 0.6 | 1.1 |
| Nc1nc(Cl)nc2c1ncn2[C@H]1C[C@H](O)[C@@H](CO)O1 [CLADRIBINE] | 7.7 | 16 | 14 | 0.79 | 9.2 |
| Cc1ncsc1CCCl [CLOMETHIAZOLE] | 6.6 | 4.5 | 33 | 0.36 | 3.3 |
| CCOC(=O)[C@@H]1C2CCC(C[C@@H]1OC(=O)c1ccccc1)N2C (stereo not given in full) [COCAETHYLENE] | 1.6 | 1.5 | 13 | 0.64 | 2 |
| CN(C)/N=N/c1[nH]cnc1C(N)=O [DACARBAZINE] | 1.2 | 6.2 | 2.6 | 1 | 7.8 |
| CN[C@H]1C(=O)N[C@@H]2Cc3ccc(cc3)Oc3cc4cc(c3O[C@@H]3O[C@H](C(=O)O)[C@@H](O)[C@H](O)[C@H]3NC(=O)CCCCCCCCC(C)C)Oc3ccc(cc3Cl)[C@@H](O)[C@@H]3NC(=O)[C@H](NC(=O)[C@@H]4NC(=O)[C@@H](NC2=O)c2cc(cc(O)c2Cl)Oc2cc1ccc2O)c1ccc(O)c(c1)-c1c(O[C@H]2O[C@H](CO)[C@@H](O)[C@H](O)[C@@H]2O)cc(O)cc1[C@@H](C(=O)NCCCN(C)C)NC3=O [DALBAVANCIN] | 0.14 | 170 | 0.01 | 0.02 | 230 |
| CCN(CC)CCS(=O)(=O)[C@@H]1CCN2C(=O)c3coc(n3)CC(=O)C[C@H](O)/C=C(C)/C=C/CNC(=O)/C=C/[C@@H](C)[C@@H](C(C)C)OC(=O)[C@@H]12 [DALFOPRISTIN] | 0.39 | 0.74 | 16 | 0.82 | 0.41 |
| O=C1CN=C(c2ccccc2Cl)c2cc(Cl)ccc2N1 [DELORAZEPAM] | 2.2 | 200 | 0.17 | 0.051 | 220 |
| CN(C)[C@@H]1C(O)=C(C(N)=O)C(=O)[C@@]2(O)C(O)=C3C(=O)c4c(O)ccc(Cl)c4[C@@H](O)[C@H]3C[C@@H]12 [DEMECLOCYCLINE] | 1.3 | 12 | 1.1 | 0.59 | 17 |
| CCN[C@@H](C)Cc1cccc(C(F)(F)F)c1 [DEXFENFLURAMINE] | 11 | 14 | 11 | 0.66 | 18 |
| Cc1cccc([C@H](C)c2cnc[nH]2)c1C [DEXMEDETOMIDINE] | 1.6 | 2.2 | 11 | 0.06 | 2.5 |
| C[C@@H](CN1CC(=O)NC(=O)C1)N1CC(=O)NC(=O)C1 [DEXRAZOXANE] | 0.55 | 2.5 | 3.1 | 1 | 3 |
| O=C(O)c1cc(-c2ccc(F)cc2F)ccc1O [DIFLUNISAL] | 0.097 | 10 | 0.1 | 0.0016 | 14 |
| CCC1CN2CCC1CC2[C@@H](O)c1ccnc2ccc(OC)cc12 (stereo not given in full) [DIHYDROQUINIDINE] | 2.8 | 5.7 | 4.2 | 0.22 | 11 |
| CCC(C)(C)NCC(O)COc1ccccc1C(=O)CCc1ccccc1 (stereo not given) [DIPRAFENONE] | 1.2 | 1.5 | 11 | 0.017 | 1.9 |
| CC(C)N(CCC(C(N)=O)(c1ccccc1)c1ccccn1)C(C)C (stereo not given) [DISOPYRAMIDE] | 0.52 | 7 | 0.9 | 0.16 | 9.6 |
| CC(=O)O[C@@]12CO[C@@H]1C[C@H](O)[C@@]1(C)C(=O)[C@H](O)C3=C(C)[C@@H](OC(=O)[C@H](O)[C@@H](NC(=O)OC(C)(C)C)c4ccccc4)C[C@@](O)([C@@H](OC(=O)c4ccccc4)[C@H]21)C3(C)C.O.O.O [DOCETAXEL] | 2.1 | 11 | 14 | 0.04 | 2.5 |
| COc1cc(CC2c3c(cc(OC)c(OC)c3OC)CC[N+]2(C)CCCOC(=O)CCC(=O)OCCC[N+]2(C)CCc3cc(OC)c(OC)c(OC)c3C2Cc2cc(OC)c(OC)c(OC)c2)cc(OC)c1OC (stereo not given) [DOXACURIUM] | 0.22 | 1.7 | 2.7 | 0.53 | 1.4 |
| CCCCCc1cc(O)c2c(c1)OC(C)(C)[C@@H]1CCC(C)=C[C@@H]21 [DRONABINOL] | 8.9 | 33 | 3.2 | 0.05 | 46 |
| CC(=O)[C@H]1CC[C@H]2[C@@H]3CC[C@@H]4C[C@H](O)CC[C@]4(C)[C@H]3CC[C@]12C [ELTANOLONE] | 2 | 4.7 | 22 | 0.01 | 1.5 |

From ChEMBL document CHEMBL1614632, “Trend analysis of a database of intravenous pharmacokinetic parameters in humans for 670 drug compounds” (Drug Metab Dispos, 2008)
